Drawing on patent publication US9000022B2 (Exelixis Patent Company LLC, priority 2005, dated 2015), this text covers IC50 or EC50 (potency, activation or inhibition) for 29 compounds.

The test system of this assay is LXRα and/or LXRβ. Put plainly: Co-transfection assay (LXRE luciferase reporter, CV-1 cells). It is filed as cell-based, human. The settings on record: tested as described in Example 33; IC50 or EC50 for LXRα and/or LXRβ, isoform not specified; read-out: activity (IC50 or EC50 for LXR). In short, it runs like this: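 Luciferase signal measures LXR-RXR transcriptional activation in transiently transfected CV-1 cells carrying human LXRα or LXRβ, RXRα and a single-copy LXRE reporter. Cells were exposed to compound for 20 h at 37 °C with at most 1% DMSO, using 10 μM final for screening. Potency was derived from 4-parameter fits of 8-point, half-log dose curves averaged over ≥3 runs, and efficacy was expressed as % of a reference agonist.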

Some results are limits rather than exact numbers.

As for `CCS(=O)(=O)c1cccc(-c2ccc(-n3cc(C(C)(C)O)nc3-c3ccccc3C(C)C)cc2)c1` [Example 96, 2-(1-(3′-(ethylsulfonyl)biphenyl-4-yl)-2-(2-isopropylphenyl)-1H-imidazol-4-yl)propan-2-ol], the IC50 or EC50 (potency, activation or inhibition) is below 1000 nM.

For `CCS(=O)(=O)c1cccc(-c2ccc(-n3cc(C(C)(C)O)nc3-c3c(C)cccc3Cl)cc2)c1` [Example 97, 2-(2-(2-chloro-6-methylphenyl)-1-(3′-(ethylsulfonyl)biphenyl-4-yl)-1H-imidazol-4-yl)propan-2-ol], the IC50 or EC50 (potency, activation or inhibition) lay in the range of 1000 to 10000 nM.

On to `CC(C)(O)c1cn(-c2ccc(-c3ccc(CO)c(S(C)(=O)=O)c3)cc2)c(-c2cccc(Cl)c2Cl)n1` [Example 98, 2-(2-(2,3-dichlorophenyl)-1-(4′-(hydroxymethyl)-3′-(methyl-sulfonyl)biphenyl-4-yl)-1H-imidazol-4-yl)propan-2-ol], for which the IC50 or EC50 (potency, activation or inhibition) is below 1000 nM.

With `CC(C)(O)c1cn(-c2ccc(-c3ccc(CO)c(S(C)(=O)=O)c3)cc2)c(-c2c(Cl)cccc2Cl)n1` [Example 99, 2-(2-(2,6-dichlorophenyl)-1-(4′-(hydroxymethyl)-3′-(methyl-sulfonyl)biphenyl-4-yl)-1H-imidazol-4-yl)propan-2-ol], the IC50 or EC50 (potency, activation or inhibition) is below 1000 nM.

For `CC(C)(O)c1cn(-c2ccc(-c3ccc(CO)c(S(C)(=O)=O)c3)cc2)c(-c2c(F)cccc2Cl)n1` [Example 100, 2-(2-(2-chloro-6-fluorophenyl)-1-(4′-(hydroxymethyl)-3′-(methyl-sulfonyl)biphenyl-4-yl)-1H-imidazol-4-yl)propan-2-ol], the IC50 or EC50 (potency, activation or inhibition) was in the range of 1000 to 10000 nM.

In the case of `Cc1c(Cl)cccc1-c1nc(C(C)(C)O)cn1-c1ccc(-c2ccc(CO)c(S(C)(=O)=O)c2)cc1` [Example 101, 2-(2-(3-chloro-2-methylphenyl)-1-(4′-(hydroxymethyl)-3′-(methyl-sulfonyl)biphenyl-4-yl)-1H-imidazol-4-yl)propan-2-ol], the IC50 or EC50 (potency, activation or inhibition) was below 1000 nM.

In the case of `Cc1cccc(Cl)c1-c1nc(C(C)(C)O)cn1-c1ccc(-c2ccc(CO)c(S(C)(=O)=O)c2)cc1` [Example 102, 2-(2-(2-chloro-6-methylphenyl)-1-(4′-(hydroxymethyl)-3′-(methyl-sulfonyl)biphenyl-4-yl)-1H-imidazol-4-yl)propan-2-ol], the IC50 or EC50 (potency, activation or inhibition) is below 1000 nM.

Consider `CC(C)(O)c1cn(-c2ccc(-c3ccc(CO)c(S(C)(=O)=O)c3)cc2)c(-c2c(F)cccc2F)n1` [Example 103, 2-(2-(2,6-difluorophenyl)-1-(4′-(hydroxymethyl)-3′-(methyl-sulfonyl)biphenyl-4-yl)-1H-imidazol-4-yl)propan-2-ol], for which the IC50 or EC50 (potency, activation or inhibition) fell in the range of 1000 to 10000 nM.

For the compound `CCS(=O)(=O)c1cccc(-c2ccc(-n3cc(C(=O)NCC(F)(F)F)nc3-c3c(Cl)cccc3Cl)c(C)c2)c1` [Example 104, 2-(2,6-dichlorophenyl)-1-(3′-(ethylsulfonyl)-3-methylbiphenyl-4-yl)-N-(2,2,2-trifluoroethyl)-1H-imidazole-4-carboxamide], the IC50 or EC50 (potency, activation or inhibition) is below 1000 nM.

As to `CC(C)(O)c1cn(-c2ccc(-c3ccc(C(C)(C)O)c(S(C)(=O)=O)c3)cc2)c(-c2cccc(Cl)c2Cl)n1` [Example 105, 2-(2-(2,3-dichlorophenyl)-1-(4′-(2-hydroxypropan-2-yl)-3′-(methylsulfonyl)biphenyl-4-yl)-1H-imidazol-4-yl)propan-2-ol], the IC50 or EC50 (potency, activation or inhibition) is below 1000 nM.

Consider `Cc1cc(-c2ccc(-n3cc(C(C)(C)O)nc3-c3c(Cl)cccc3Cl)cc2)cc(S(C)(=O)=O)c1` [Example 106, 2-(2-(2,6-dichlorophenyl)-1-(′3-methyl-5′-(methyl-sulfonyl)biphenyl-4-yl)-1H-imidazol-4-yl)propan-2-ol], for which the IC50 or EC50 (potency, activation or inhibition) lay in the range of 1000 to 10000 nM.

For the compound `CC(C)(O)c1cn(-c2ccc(-c3cc(S(C)(=O)=O)ccc3Cl)cc2)c(-c2c(Cl)cccc2Cl)n1` [Example 107, 2-(1-(2′-chloro-5′-(methyl-sulfonyl)biphenyl-4-yl)-2-(2,6-dichlorophenyl)-1H-imidazol-4-yl)propan-2-ol], the IC50 or EC50 (potency, activation or inhibition) is below 1000 nM.

`CNS(=O)(=O)c1cccc(-c2ccc(-n3cc(C(C)(C)O)nc3-c3c(Cl)cccc3Cl)cc2)c1` [Example 108, 4′-(2-(2,6-dichlorophenyl)-4-(2-hydroxypropan-2-yl)-1H-imidazol-1-yl)-N-methylbiphenyl-3-sulfonamide]: the IC50 or EC50 (potency, activation or inhibition) was below 1000 nM.

`CC(C)(O)c1cn(-c2ccc(-c3cccc(S(C)(=O)=O)c3)cc2F)c(-c2ccccc2C(F)(F)F)n1` [Example 109, 2-(1-(3-fluoro-3′-(methyl-sulfonyl)biphenyl-4-yl)-2-(2-(trifluoromethyl)phenyl)-1H-imidazol-4-yl)propan-2-ol]: the IC50 or EC50 (potency, activation or inhibition) was below 1000 nM.

In the case of `CCS(=O)(=O)c1cccc(-c2ccc(-n3cc(C(C)(C)O)nc3-c3ccccc3C(F)(F)F)c(F)c2)c1` [Example 110, 2-(1-(3′-(ethylsulfonyl)-3-fluoro-biphenyl-4-yl)-2-(2-(trifluoromethyl)phenyl)-1H-imidazol-4-yl)propan-2-ol], the IC50 or EC50 (potency, activation or inhibition) is below 1000 nM.

Regarding `CC(C)(O)c1cn(-c2ccc(-c3cccc(S(C)(=O)=O)c3)c(F)c2)c(-c2ccccc2C(F)(F)F)n1` [Example 111, 2-(1-(2-fluoro-3′-(methyl-sulfonyl)biphenyl-4-yl)-2-(2-(trifluoromethyl)phenyl)-1H-imidazol-4-yl)propan-2-ol], the IC50 or EC50 (potency, activation or inhibition) is below 1000 nM.

In the case of `CCS(=O)(=O)c1cccc(-c2ccc(-n3cc(C(C)(C)O)nc3-c3ccccc3C(F)(F)F)cc2F)c1` [Example 112, 2-(1-(3′-(ethylsulfonyl)-2-fluoro-biphenyl-4-yl)-2-(2-(trifluoro-methyl)phenyl)-1H-imidazol-4-yl)propan-2-ol], the IC50 or EC50 (potency, activation or inhibition) is below 1000 nM.

On to `CC(C)(O)c1cn(-c2ccc(-c3cccc(S(C)(=O)=O)c3)cc2F)c(-c2cccc(Cl)c2Cl)n1` [Example 113, 2-(2-(2,3-dichlorophenyl)-1-(3-fluoro-3′-(methylsulfonyl)biphenyl-4-yl)-1H-imidazol-4-yl)propan-2-ol], for which the IC50 or EC50 (potency, activation or inhibition) was below 1000 nM.

Consider `CCS(=O)(=O)c1cccc(-c2ccc(-n3cc(C(C)(C)O)nc3-c3cccc(Cl)c3Cl)c(F)c2)c1` [Example 114, 2-(2-(2,3-dichlorophenyl)-1-(3′-(ethylsulfonyl)-3-fluorobiphenyl-4-yl)-1H-imidazol-4-yl)propan-2-ol], for which the IC50 or EC50 (potency, activation or inhibition) was below 1000 nM.

In the case of `CC(C)(O)c1cn(-c2ccc(-c3cccc(S(C)(=O)=O)c3)cc2F)c(-c2c(Cl)cccc2Cl)n1` [Example 115, 2-(2-(2,6-dichlorophenyl)-1-(3-fluoro-3′-(methylsulfonyl)biphenyl-4-yl)-1H-imidazol-4-yl)propan-2-ol], the IC50 or EC50 (potency, activation or inhibition) is below 1000 nM.

On to `CCS(=O)(=O)c1cccc(-c2ccc(-n3cc(C(C)(C)O)nc3-c3c(Cl)cccc3Cl)c(F)c2)c1` [Example 116, 2-(2-(2,6-dichlorophenyl)-1-(3′-(ethylsulfonyl)-3-fluorobiphenyl-4-yl)-1H-imidazol-4-yl)propan-2-ol], for which the IC50 or EC50 (potency, activation or inhibition) was below 1000 nM.

Consider `CC(C)(O)c1cn(-c2ccc(-c3ccc(CO)c(S(C)(=O)=O)c3)cc2F)c(-c2cccc(Cl)c2Cl)n1` [Example 117, 2-(2-(2,3-dichlorophenyl)-1-(3-fluoro-4′-(hydroxymethyl)-3′-(methyl-sulfonyl)biphenyl-4-yl)-1H-imidazol-4-yl)propan-2-ol], for which the IC50 or EC50 (potency, activation or inhibition) is below 1000 nM.

On to `Cc1c(Cl)cccc1-c1nc(C(C)(C)O)cn1-c1ccc(-c2cccc(S(C)(=O)=O)c2)cc1F` [Example 118, 2-(2-(3-chloro-2-methylphenyl)-1-(3-fluoro-3′-(methylsulfonyl)biphenyl-4-yl)-1H-imidazol-4-yl)propan-2-ol], for which the IC50 or EC50 (potency, activation or inhibition) was below 1000 nM.

As to `CCS(=O)(=O)c1cccc(-c2ccc(-n3cc(C(C)(C)O)nc3-c3cccc(Cl)c3C)c(F)c2)c1` [Example 119, 2-(2-(3-chloro-2-methylphenyl)-1-(3′-(ethylsulfonyl)-3-fluorobiphenyl-4-yl)-1H-imidazol-4-yl)propan-2-ol], the IC50 or EC50 (potency, activation or inhibition) was below 1000 nM.

As to `Cc1c(Cl)cccc1-c1nc(C(C)(C)O)cn1-c1ccc(-c2ccc(CO)c(S(C)(=O)=O)c2)cc1F` [Example 120, 2-(2-(3-chloro-2-methylphenyl)-1-(3-fluoro-4′-(hydroxymethyl)-3′-(methylsulfonyl)biphenyl-4-yl)-1H-imidazol-4-yl)propan-2-ol], the IC50 or EC50 (potency, activation or inhibition) was below 1000 nM.

For the compound `CC(C)(O)c1cn(-c2ccc(-c3ccc(CO)c(S(C)(=O)=O)c3)cc2F)c(-c2ccccc2C(F)(F)F)n1` [Example 121], the IC50 or EC50 (potency, activation or inhibition) is below 1000 nM.

With `CC(C)(O)c1cn(-c2ccc(-c3ccc(CO)c(S(C)(=O)=O)c3)cc2F)c(-c2c(Cl)cccc2Cl)n1` [Example 122, 2-(2-(2,6-dichlorophenyl)-1-(3-fluoro-4′-(hydroxymethyl)-3′-(methylsulfonyl)biphenyl-4-yl)-1H-imidazol-4-yl)propan-2-ol], the IC50 or EC50 (potency, activation or inhibition) is below 1000 nM.

`CC(C)(O)c1cn(-c2ccc(-c3cccc(S(C)(=O)=O)c3)cc2F)c(-c2cccc(F)c2Cl)n1` [Example 123, 2-(2-(2-chloro-3-fluorophenyl)-1-(3-fluoro-3′-(methylsulfonyl)biphenyl-4-yl)-1H-imidazol-4-yl)propan-2-ol]: the IC50 or EC50 (potency, activation or inhibition) is below 1000 nM.

`CCS(=O)(=O)c1cccc(-c2ccc(-n3cc(C(C)(C)O)nc3-c3cccc(F)c3Cl)c(F)c2)c1` [Example 124, 2-(2-(2-chloro-3-fluorophenyl)-1-(3′-(ethylsulfonyl)-3-fluorobiphenyl-4-yl)-1H-imidazol-4-yl)propan-2-ol]: the IC50 or EC50 (potency, activation or inhibition) was below 1000 nM.
